Among the data in PMC6695811, “Protein Phosphatase Ppz1 Is Not Regulated by a Hal3-Like Protein in Plant Pathogen Ustilago maydis” (International Journal of Molecular Sciences, 2019) are phosphatase activity assay values, retold here.

Experiment in all cases: phosphatase activity assay
Holding throughout (assay type): biochemical
Details in all cases: 10 mM pNPP

One test concerns the target T1, UmPpz1 (Mycosarcoma maydis, UniProt A0A0D1DW62).
T1 construct: gene UMAG_04827; full-length ORF, 497 residues, from FB1 genomic DNA in pGEX-6p-1, E. coli BL21(DE3) RIL, GST tag cut by PreScission
T1 sequence (A0A0D1DW62 1-497): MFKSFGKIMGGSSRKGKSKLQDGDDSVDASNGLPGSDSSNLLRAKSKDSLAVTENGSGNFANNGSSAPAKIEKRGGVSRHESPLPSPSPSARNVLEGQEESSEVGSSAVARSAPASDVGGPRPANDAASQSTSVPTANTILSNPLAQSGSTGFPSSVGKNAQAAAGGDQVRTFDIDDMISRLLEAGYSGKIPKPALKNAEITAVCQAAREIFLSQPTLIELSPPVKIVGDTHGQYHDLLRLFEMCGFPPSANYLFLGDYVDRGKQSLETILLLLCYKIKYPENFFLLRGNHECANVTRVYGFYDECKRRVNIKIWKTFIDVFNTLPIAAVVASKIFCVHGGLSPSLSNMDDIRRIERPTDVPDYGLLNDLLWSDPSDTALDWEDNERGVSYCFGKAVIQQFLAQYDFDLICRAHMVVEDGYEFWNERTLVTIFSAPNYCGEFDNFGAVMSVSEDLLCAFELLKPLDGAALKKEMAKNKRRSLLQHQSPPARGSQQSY

Another test concerns the target T2, UmPpz1-s (Mycosarcoma maydis, UniProt A0A0D1DW62).
T2 construct: gene UMAG_04827; short version lacking residues 1-8 (starts at Met9), pGEX-6p-1, E. coli BL21(DE3) RIL, GST tag cut by PreScission
T2 sequence (A0A0D1DW62 9-497): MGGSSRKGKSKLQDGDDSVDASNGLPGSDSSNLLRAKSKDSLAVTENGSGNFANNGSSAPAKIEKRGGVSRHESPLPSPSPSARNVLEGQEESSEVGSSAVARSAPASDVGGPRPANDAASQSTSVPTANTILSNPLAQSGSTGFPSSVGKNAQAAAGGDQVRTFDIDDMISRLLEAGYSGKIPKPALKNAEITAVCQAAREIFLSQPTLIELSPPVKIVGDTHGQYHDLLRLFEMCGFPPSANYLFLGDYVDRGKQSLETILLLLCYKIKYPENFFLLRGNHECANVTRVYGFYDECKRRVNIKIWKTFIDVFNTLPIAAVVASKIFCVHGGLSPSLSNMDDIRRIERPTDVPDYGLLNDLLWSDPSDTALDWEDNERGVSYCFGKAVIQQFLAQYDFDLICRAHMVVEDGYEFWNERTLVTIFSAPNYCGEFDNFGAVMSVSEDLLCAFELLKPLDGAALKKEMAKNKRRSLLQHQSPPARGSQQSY

A further test has as its target T3, ScPpz1 (Saccharomyces cerevisiae, UniProt P26570).
T3 construct: gene PPZ1; full length, 692 residues, GST fusion from E. coli BL21(DE3) RIL, GST tag cut by PreScission
T3 sequence (P26570 1-692): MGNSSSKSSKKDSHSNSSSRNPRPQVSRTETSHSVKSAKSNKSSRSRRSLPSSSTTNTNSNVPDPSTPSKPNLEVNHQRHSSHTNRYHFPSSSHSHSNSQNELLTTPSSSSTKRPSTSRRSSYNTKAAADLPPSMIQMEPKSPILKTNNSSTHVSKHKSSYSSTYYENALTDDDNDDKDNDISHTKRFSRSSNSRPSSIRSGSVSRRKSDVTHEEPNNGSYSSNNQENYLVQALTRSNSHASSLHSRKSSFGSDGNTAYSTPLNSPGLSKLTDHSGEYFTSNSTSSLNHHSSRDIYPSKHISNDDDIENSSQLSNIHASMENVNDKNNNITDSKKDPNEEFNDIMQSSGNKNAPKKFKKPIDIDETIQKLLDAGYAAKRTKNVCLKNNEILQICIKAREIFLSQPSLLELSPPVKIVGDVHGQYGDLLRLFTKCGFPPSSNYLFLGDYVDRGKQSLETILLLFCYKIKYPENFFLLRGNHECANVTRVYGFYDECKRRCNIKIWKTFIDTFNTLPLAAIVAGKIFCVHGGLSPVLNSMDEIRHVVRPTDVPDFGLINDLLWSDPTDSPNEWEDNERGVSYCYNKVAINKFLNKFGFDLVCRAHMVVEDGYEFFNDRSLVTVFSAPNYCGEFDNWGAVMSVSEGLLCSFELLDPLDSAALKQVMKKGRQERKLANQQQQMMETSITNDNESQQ

Turning to `O=[N+]([O-])c1ccc(OP(=O)(O)O)cc1` [p-nitrophenylphosphate], the values for the phosphatase activity assay entry on UmPpz1, at UmPpz1-s and at ScPpz1 were “showed phosphatase activity against the synthetic substrate pNPP”, “The recombinant enzyme (as well as UmPpz1-s) showed phosphatase activity against the synthetic substrate pNPP” and “substrate pNPP which was similar to that observed for ScPpz1”, respectively.
